{
  "source": "patent US20230027361A1",
  "about": "“METTL3 MODULATORS” (priority 2019, published 2023)",
  "key": {"[1]": {"target": "T1, METTL16 (Homo sapiens, UniProt Q86W50)", "T1 sequence (Q86W50 1-562)": "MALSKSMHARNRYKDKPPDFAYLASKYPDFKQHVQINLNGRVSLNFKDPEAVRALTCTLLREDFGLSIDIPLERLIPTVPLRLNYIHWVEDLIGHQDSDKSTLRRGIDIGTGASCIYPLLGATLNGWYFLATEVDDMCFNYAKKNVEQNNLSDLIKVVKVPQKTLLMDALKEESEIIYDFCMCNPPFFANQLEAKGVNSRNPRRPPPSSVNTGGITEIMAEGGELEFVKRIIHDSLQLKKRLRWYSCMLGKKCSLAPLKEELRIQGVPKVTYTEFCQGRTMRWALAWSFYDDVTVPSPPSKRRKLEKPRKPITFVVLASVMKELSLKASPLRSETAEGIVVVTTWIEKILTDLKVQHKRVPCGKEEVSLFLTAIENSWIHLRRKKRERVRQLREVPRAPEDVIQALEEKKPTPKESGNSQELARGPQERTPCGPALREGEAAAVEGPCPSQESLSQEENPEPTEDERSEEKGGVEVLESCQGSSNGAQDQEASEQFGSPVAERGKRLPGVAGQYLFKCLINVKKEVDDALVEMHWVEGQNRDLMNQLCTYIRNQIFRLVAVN", "assay": "METTL16 Assay (METTL16 biochemical assay)", "details": "read-out: METTL16 IC50", "outline": "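Radiometric methyltransferase reaction at ambient temperature in 20 mM HEPES pH 7.5, 50 mM KCl, 1 mM DTT, with 100 nM enzyme preincubated 5 min with compound. It was started with 50 nM 3′-biotinylated RNA, 200 nM 3H-SAM plus 800 nM cold SAM, run 20 min, then quenched with excess cold SAM. Product was captured on streptavidin flashplates and scintillation-counted.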"}, "[2]": {"tested_on": "MOLM-13 cells", "assay": "MOLM-13 96 Hour Cell Proliferation Assay", "type": "cell-based", "details": "Homo sapiens", "outline": "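MOLM-13 cells in RPMI 1640 with 10% FBS were plated overnight at 37 °C, then exposed to compound dilutions at 0.25% DMSO final for 96 h. Viability was read by CellTiter-Glo luminescence, normalised to staurosporine (100% death) and DMSO (0% death) controls, and IC50 was fitted by 4-parameter logistic regression.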"}, "[3]": {"tested_on": "m6A in cellular mRNA of MOLM-13 cells", "assay": "m6A-mRNA LC-MS/MS Assay (m6A cellular assay)", "type": "cell-based", "details": "Homo sapiens, MOLM-13, read-out: m^6A IC50", "outline": "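Cells harvested, mRNA extracted and digested to single nucleosides, then analysed by LC-MS/MS. Nucleosides quantified against a standard curve from pure nucleoside standards run in the same batch. m6A level expressed as 100*(m6A/A).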"}},
  "data": [
    {"smiles": "CCNc1ccc2ccc(OC[C@H]3O[C@@H](n4cc(-c5cn(C)cn5)c5c(N)ncnc54)[C@@H](F)[C@@H]3O)cc2n1", "note": "[I-10]", "values": [
      {"measurement": "IC50", "setting": "[1]", "result": "> 1000", "unit": "nM"},
      {"measurement": "IC50", "setting": "[2]", "result": "< 1000", "unit": "nM"},
      {"measurement": "IC50", "setting": "[3]", "result": "1000 to 10000", "unit": "nM"}
    ]},
    {"smiles": "CNc1ccc2ccc(OC[C@H]3O[C@@H](n4cc(-c5ccn(C)n5)c5c(N)ncnc54)[C@@H](F)[C@@H]3O)cc2n1", "note": "[I-12]", "values": [
      {"measurement": "IC50", "setting": "[1]", "result": "> 1000", "unit": "nM"},
      {"measurement": "IC50", "setting": "[2]", "result": "< 1000", "unit": "nM"},
      {"measurement": "IC50", "setting": "[3]", "result": "< 1000", "unit": "nM"}
    ]},
    {"smiles": "CNc1ccc2ccc(OC[C@H]3O[C@@H](n4cc(CC5CCCC5)c5c(N)ncnc54)[C@H](O)[C@@H]3O)cc2n1", "note": "[I-23]", "values": [
      {"measurement": "IC50", "setting": "[1]", "result": "> 1000", "unit": "nM"},
      {"measurement": "IC50", "setting": "[3]", "result": "1000 to 10000", "unit": "nM"}
    ]},
    {"smiles": "CNc1ccc2ccc(OC[C@H]3O[C@@H](n4cc(C5CC5)c5c(N)ncnc54)[C@@H](F)[C@@H]3O)cc2n1", "note": "[I-29]", "values": [
      {"measurement": "IC50", "setting": "[1]", "result": "> 1000", "unit": "nM"},
      {"measurement": "IC50", "setting": "[2]; MOLM-13, 96 h", "result": "< 1000", "unit": "nM"},
      {"measurement": "IC50", "setting": "[3]", "result": "1000 to 10000", "unit": "nM"}
    ]},
    {"smiles": "CNc1ccc2ccc(OC[C@H]3O[C@@H](n4cc(C5CCCC5)c5c(N)ncnc54)[C@H](O)[C@@H]3O)cc2n1", "note": "[I-33, (2R,3R,4S,5R)-2-(4-amino-5-cyclopentyl-7H-pyrrolo[2,3-d]pyrimidin-7-yl)-5-(((2-(methylamino)quinolin-7-yl)oxy)methyl)tetrahydrofuran-3,4-diol]", "values": [
      {"measurement": "IC50", "setting": "[1]", "result": "> 1000", "unit": "nM"},
      {"measurement": "IC50", "setting": "[2]; MOLM-13, 96 h", "result": "< 1000", "unit": "nM"},
      {"measurement": "IC50", "setting": "[3]", "result": "< 1000", "unit": "nM"}
    ]},
    {"smiles": "CNc1ccc2ccc(OC[C@H]3O[C@@H](n4cc(CC5CC5)c5c(N)ncnc54)[C@@H](F)[C@@H]3O)cc2n1", "note": "[I-36]", "values": [
      {"measurement": "IC50", "setting": "[1]", "result": "> 1000", "unit": "nM"},
      {"measurement": "IC50", "setting": "[2]; MOLM-13, 96 h", "result": "< 1000", "unit": "nM"},
      {"measurement": "IC50", "setting": "[3]", "result": "1000 to 10000", "unit": "nM"}
    ]},
    {"smiles": "CNc1ccc2ccc(CC[C@H]3O[C@@H](n4cc(C5CCCC5)c5c(N)ncnc54)[C@H](O)[C@@H]3O)cc2n1", "note": "[I-39]", "values": [
      {"measurement": "IC50", "setting": "[1]", "result": "> 1000", "unit": "nM"},
      {"measurement": "IC50", "setting": "[2]; MOLM-13, 96 h", "result": "< 1000", "unit": "nM"},
      {"measurement": "IC50", "setting": "[3]", "result": "1000 to 10000", "unit": "nM"}
    ]},
    {"smiles": "CNc1ccc2ccc(OC[C@H]3O[C@@H](n4cc(Cl)c5c(N)ncnc54)[C@H](O)[C@@H]3O)cc2n1", "note": "[I-70]", "values": [
      {"measurement": "IC50", "setting": "[1]", "result": "> 1000", "unit": "nM"},
      {"measurement": "IC50", "setting": "[2]; MOLM-13, 96 h", "result": "< 1000", "unit": "nM"},
      {"measurement": "IC50", "setting": "[3]", "result": "1000 to 10000", "unit": "nM"}
    ]},
    {"smiles": "CNc1ccc2ccc(OC[C@H]3O[C@@H](n4cc(Br)c5c(N)ncnc54)[C@H](O)[C@@H]3O)cc2n1", "note": "[I-73]", "values": [
      {"measurement": "IC50", "setting": "[1]", "result": "> 1000", "unit": "nM"},
      {"measurement": "IC50", "setting": "[2]; MOLM-13, 96 h", "result": "< 1000", "unit": "nM"},
      {"measurement": "IC50", "setting": "[3]", "result": "1000 to 10000", "unit": "nM"}
    ]},
    {"smiles": "Cn1ccc(-c2cn([C@@H]3O[C@H](COc4ccc5ccc(N6CCC6)nc5c4)[C@@H](O)[C@@H]3F)c3ncnc(N)c23)n1", "note": "[I-149]", "values": [
      {"measurement": "IC50", "setting": "[1]", "result": "> 1000", "unit": "nM"},
      {"measurement": "IC50", "setting": "[2]; MOLM-13, 96 h", "result": "< 1000", "unit": "nM"},
      {"measurement": "IC50", "setting": "[3]", "result": "< 1000", "unit": "nM"}
    ]}
  ]
}
